According to ChEMBL document CHEMBL1128570, “Binding of 5H-dibenzo[a,d]cycloheptene and dibenz[b,f]oxepin analogues of clozapine to dopamine and serotonin receptors” (J Med Chem, 1995):

Key:
[1] = target: D(2) dopamine receptor (Homo sapiens, UniProt P14416); assay: Ability to inhibit the binding of [3H]spiperone to the Dopamine receptor D2L in COS7 cells; assay type: cell-based, COS-7
[2] = target: T1, D(4) dopamine receptor (Homo sapiens, UniProt P21917); assay: Ability to inhibit the binding of [3H]spiperone to the Dopamine receptor D4 in COS7 cells; assay type: cell-based, COS-7
T1 sequence (P21917 whole entry): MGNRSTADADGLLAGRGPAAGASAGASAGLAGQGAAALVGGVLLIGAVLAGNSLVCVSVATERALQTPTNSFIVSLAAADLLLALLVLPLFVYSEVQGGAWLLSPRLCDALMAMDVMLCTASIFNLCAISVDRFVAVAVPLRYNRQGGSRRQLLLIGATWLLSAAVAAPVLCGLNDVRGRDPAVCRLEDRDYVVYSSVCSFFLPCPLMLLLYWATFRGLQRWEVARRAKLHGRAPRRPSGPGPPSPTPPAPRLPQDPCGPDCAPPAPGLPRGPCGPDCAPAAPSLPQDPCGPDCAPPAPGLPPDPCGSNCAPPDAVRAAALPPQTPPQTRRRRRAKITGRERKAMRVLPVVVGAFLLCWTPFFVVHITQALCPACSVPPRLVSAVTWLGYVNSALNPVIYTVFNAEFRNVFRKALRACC

[3] = Ratio of Ki value towards dopamine D2L receptor to that of serotonin S-2A receptor.
[4] = target: T2, 5-hydroxytryptamine receptor 2A (Rattus norvegicus, UniProt P14842); assay: Ability to inhibit the binding of iodine-125-labelled lysergic acid diethylamide([125I]-LSD) to the S-2A serotonin receptor.
[5] = target: T3, 5-hydroxytryptamine receptor 2C (Rattus norvegicus, UniProt P08909); assay: Ability to inhibit the binding of iodine-125-labelled lysergic acid diethylamide([125I]-LSD) to the S-2C serotonin receptor.
T3 sequence (P08909 whole entry): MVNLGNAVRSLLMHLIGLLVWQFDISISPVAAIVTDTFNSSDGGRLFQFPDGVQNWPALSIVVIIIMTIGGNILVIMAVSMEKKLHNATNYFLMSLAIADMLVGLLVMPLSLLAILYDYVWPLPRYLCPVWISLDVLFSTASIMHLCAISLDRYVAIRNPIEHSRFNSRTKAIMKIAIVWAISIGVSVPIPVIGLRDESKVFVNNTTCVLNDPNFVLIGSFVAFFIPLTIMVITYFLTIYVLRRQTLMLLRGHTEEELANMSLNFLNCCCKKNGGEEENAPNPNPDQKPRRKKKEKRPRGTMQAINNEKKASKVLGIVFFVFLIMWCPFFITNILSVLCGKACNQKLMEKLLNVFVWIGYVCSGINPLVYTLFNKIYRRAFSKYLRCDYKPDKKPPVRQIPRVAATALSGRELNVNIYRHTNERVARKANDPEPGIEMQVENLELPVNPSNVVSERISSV

[6] = target: T3, 5-hydroxytryptamine receptor 2C; assay: Ability to inhibit the binding of iodine-125-labelled lysergic acid diethylamide([125I]-LSD) to the S-2C serotonin receptor in NIH3T3 cell line membranes; assay type: cell-based
[7] = target: T2, 5-hydroxytryptamine receptor 2A; assay: Ability to inhibit the binding of iodine-125-labelled lysergic acid diethylamide([125I]-LSD) to the S-2A serotonin receptor in NIH3T3 cell line membranes; assay type: cell-based

T2 sequence (P14842 whole entry): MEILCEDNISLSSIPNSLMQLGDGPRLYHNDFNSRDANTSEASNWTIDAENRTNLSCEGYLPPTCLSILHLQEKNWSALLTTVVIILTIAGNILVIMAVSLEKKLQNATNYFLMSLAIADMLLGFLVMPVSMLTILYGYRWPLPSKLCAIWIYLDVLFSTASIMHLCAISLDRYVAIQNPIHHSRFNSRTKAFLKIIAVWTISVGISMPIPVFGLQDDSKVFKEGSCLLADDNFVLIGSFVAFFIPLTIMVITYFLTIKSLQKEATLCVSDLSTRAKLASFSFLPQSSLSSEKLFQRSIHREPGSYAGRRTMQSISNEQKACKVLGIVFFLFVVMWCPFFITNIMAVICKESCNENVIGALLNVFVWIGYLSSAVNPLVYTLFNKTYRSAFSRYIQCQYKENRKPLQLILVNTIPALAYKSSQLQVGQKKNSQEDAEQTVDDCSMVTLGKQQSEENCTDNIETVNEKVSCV
Chain of D(2) dopamine receptor (P14416 whole entry): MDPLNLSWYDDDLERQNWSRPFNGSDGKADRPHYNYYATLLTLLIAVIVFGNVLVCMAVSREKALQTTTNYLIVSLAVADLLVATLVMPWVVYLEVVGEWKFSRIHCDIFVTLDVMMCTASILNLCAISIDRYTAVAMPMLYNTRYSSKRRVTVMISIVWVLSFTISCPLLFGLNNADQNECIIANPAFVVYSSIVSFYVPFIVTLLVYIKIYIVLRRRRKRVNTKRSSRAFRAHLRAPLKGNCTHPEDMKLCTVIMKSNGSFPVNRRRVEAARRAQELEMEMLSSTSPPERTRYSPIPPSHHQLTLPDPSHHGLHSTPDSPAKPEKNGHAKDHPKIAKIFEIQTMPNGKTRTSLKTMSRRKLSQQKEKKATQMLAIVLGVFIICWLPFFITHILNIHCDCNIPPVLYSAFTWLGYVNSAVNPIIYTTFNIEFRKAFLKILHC

C=CCN1CC=C(C2=Cc3ccccc3Cc3ccccc32)CC1
Ki [1]: 83 nM | Ki [2]: 60 nM | Ratio [3]: 4.2 | Ki [4]: 20 nM | Ki [5]: 46 nM

CCN1CC=C(C2=Cc3ccccc3Oc3ccccc32)CC1
Ki [1]: 61 nM | Ki [2]: 26 nM | Ki [6]: 14 nM | Ratio [3]: 10 | Ki [7]: 6 nM

CC(C)=C1c2ccccc2C=C(C2=CCN(C)CC2)c2ccccc21
Ratio [3]: 0.48

CN1CCN(C2=Cc3ccccc3Oc3ccccc32)CC1
Ratio [3]: 5

CN1CCN(C2=Cc3ccccc3Oc3ccc(Cl)cc32)CC1
Ratio [3]: 0.8

CN1CC=C(C2=Cc3ccccc3Cc3ccccc32)CC1
Ki [1]: 89 nM | Ki [2]: 12 nM | Ratio [3]: 15 | Ki [4]: 6 nM | Ki [5]: 14 nM

CC(C)=C1c2ccccc2C=C(C2=CCN(C)CC2)c2cc(Cl)ccc21
Ki [1]: 440 nM | Ki [2]: 100 nM | Ratio [3]: 0.58 | Ki [4]: 760 nM | Ki [5]: 1200 nM

CC1c2ccccc2C=C(C2=CCN(C)CC2)c2ccccc21 (configuration not stated)
Ratio [3]: 9.4

CN1CC=C(C2=Cc3ccccc3Oc3ccccc32)CC1
Ki [2]: 29 nM | Ki [6]: 20 nM | Ki [7]: 6 nM

C=CCN1CC=C(C2=Cc3ccccc3Oc3ccccc32)CC1
Ki [1]: 110 nM | Ki [2]: 37 nM | Ki [6]: 51 nM | Ratio [3]: 5 | Ki [7]: 22 nM

CCN1CC=C(C2=Cc3ccccc3Cc3ccccc32)CC1
Ki [1]: 44 nM | Ki [2]: 28 nM | Ratio [3]: 9.8 | Ki [4]: 4.5 nM | Ki [5]: 7 nM

CN1CCC(C2=Cc3ccccc3Oc3ccccc32)CC1
Ki [1]: 82 nM | Ki [2]: 9.5 nM | Ki [6]: 8 nM | Ratio [3]: 30 | Ki [7]: 3 nM
